Data from patent US9365830B2, “Agents and methods for inhibiting human pluripotent stem cell growth” (VIACYTE, INC., priority 2010, dated 2016).
“Also recorded” adds a separate entry of the source. Like-named read-outs stand apart in the source and are kept apart here.

What was measured:
Format in all cases: cell-based, human
[1] = test system: NPCs; experiment: Secondary screen, lowest effective dose on NPCs; details: lowest concentration that elicited cytotoxicity, range 0.1 to 50 μM, read-out: ED NPC (lowest effective dose)
Procedure: In addition, the complete LOPAC1280™ collection was also screened for effects on neural progenitor cells (NPCs) that were derived from the hESCs. Neural progenitors were plated in serum-free MedII conditioned medium at 6×10^4 cells/well and fed daily. Two days after plating, 10 μM of each compound was added and the cells were cultured for an additional 2 days. […] Reduced crystal violet staining was indicative of lower proportions of NPCs. See circled wells in FIG. 7B. The left and right columns of the LOPAC1280™ plates from which the compounds were dispensed were empty and served as untreated controls. […] See Table 6 below listing the name and class of activity of each candidate compound identified in this screen (except chelerythrine chloride, which is listed in Table 5). ChCl was not included in the subsequent round of screening. Therefore only 40 compounds were tested further.
(§1) Using a range of different concentrations from 0.1 to 50 μM, the forty compounds in Table 6 were re-screened (secondary screen) using hESCS and NPCs. The effective dose (ED) was defined as the lowest concentration of a compound that elicited cytotoxicity during the secondary screen. […] The darker wells were indicative of the increased numbers or percentages of proliferating or growing pluripotent stem cells in the wells. In addition, these 40 compounds were screened on differentiating definitive endoderm (DE) cell cultures in 96-well plate impedance assays (described above) to determine which of these compounds were not cytotoxic to definitive endoderm cells at the lowest effective dose on either hESC or NPC. […] See “ACEA DE” column in Table 6.

[2] = test system: hESCs; experiment: Secondary screen, lowest effective dose on hESCs; details: lowest concentration that elicited cytotoxicity, range 0.1 to 50 μM, read-out: ED hESC (lowest effective dose)
Procedure: To expand the number of potential candidate hESC cytotoxic and inhibitory compounds, the complete LOPAC1280™ collection (containing 1,280 compounds) was screened. In the primary screen, cytotoxicity was tested on undifferentiated hESCs (about 3×10^4 BG01 cells) in 16 standard 96-well trays, in DC-HAIF defined medium on growth factor-reduced MATRIGEL™ diluted 1:200, which were fed daily (FIG. 7A). 10 μM of each compound was added to the hESCs one day after plating, and the cells were cultured for an additional 2 days. Plates were then fixed and stained for alkaline phosphatase (AP) to identify relative decreases in proliferation or growth of hESCs (as reduced AP staining), indicative of lower proportions of hESCs. See the circled wells in FIG. 7A.
as §1

[3] = test system: differentiating Stage 1 cultures (definitive endoderm); experiment: Secondary screen on differentiating Stage 1 cultures in 6-well trays; details: compounds added to differentiating Stage 1 cultures
Description: The impedance assay on the hESCs using the compounds in Table 4 above gave greater than twenty (20) hits. However, the ideal candidate compound of the present invention should not only be inhibitory or cytotoxic to human pluripotent stem cells, such as hESCs or hIPSCs, but should at the same time have no effect on cell viability of differentiated or differentiating cell populations including Stage 1, 2, 3, 4 and 5 type cells cultures (definitive endoderm, foregut endoderm, posterior foregut, pancreatic endoderm and endocrine cells, respectively). […] Approximately 3×10^4 hES cells were plated per well and grown for 24 hrs in DC-HAIF defined medium (i.e. StemPro® hESC SFM medium (Life Technologies, Carlsbad, Calif.). Stage 1 or definitive endoderm differentiation was then induced by changing the medium and culturing in RPMI, 100 ng/mL Activin A, and 10 ng/mL of FGF2. […] of GSK-3 beta Inhibitor 15 (Calbiochem #361558) as added to the culture for the first 24 hours of differentiation only. 10 μM of each of the candidate compounds were added about 48 hours or 2 days after differentiation was induced (see FIGS. 3 C & D, large arrowhead), and the cells were cultured for an additional 2 days.
Secondary Screen with Selected Compounds. A secondary screen using 9 of the 10 candidate compounds in Table 5 was performed by adding the compounds to differentiating Stage 1 cultures (definitive endoderm) as described above. For the secondary screen, larger standard 6-well trays were used instead of the RT-CEAS 96-well culture plates used in primary screens employing impedance assays. Only 9 of the 10 compounds in Table 5 were tested because the 10th was not available in sufficient quantity at the time the assays were performed. In the larger, 6-well trays, 5 of the 9 compounds listed in Table 5 had no effect on viability of differentiating cells or differentiated definitive endoderm. […] This assay also confirmed that the viability of differentiating cells and differentiated definitive endoderm cells was apparently consistent regardless of the numbers of cells tested, or the size, volume, or source of the culture vessel.

[4] = test system: adherent Stage 1 cell cultures of BG02; experiment: Q-PCR marker gene expression, adherent Stage 1 cultures of BG02; details: for SOX17 gene expression: end of Stage 1, compared to DMSO control (FIG. 4D); for OCT4 and NANOG gene expression: end of Stage 1, compared to DMSO control (FIGS. 4A, 4B); for FOXA2 (HNF3β) expression: end of Stage 1, compared to DMSO control (FIG. 4C)
Description: FIGS. 4A-4G are bar graphs showing the relative gene expression levels of OCT4 (FIG. 4A), NANOG (FIG. 4B), FOXA2 (FIG. 4C), SOX17 (FIG. 4D), SOX7 (FIG. 4E), PAX6 (FIG. 4F) and ZIC1 (FIG. 4G) BG02 with treatment of candidate selective cytotoxic agents from the LOPAC1280™ sublibrary (Table 4) to adherent Stage 1 cell cultures of BG02. Expression levels were normalized using the geometric mean of three housekeeping genes, GUSB, CYCG and TBP. The graphs depict fold regulation compared to the hESC sample. The large arrow heads indicate time of the drug treatment. D=DMSO (control); C=Chelerythrine Chloride; A=AG490; B=BTO-1; De=Dephostatin; S=SU6656.
Screen for Effects on Stages 1-5 Differentiation. To further determine whether these 5 candidate compounds added at Stage 1 affected other differentiated cell types (e.g. Stages 2-5: foregut endoderm, posterior foregut endoderm, pancreatic endoderm and endocrine precursor cells, respectively), hES were differentiated in the presence or absence of compounds, and RNA samples were taken at various stages for gene expression analysis by Q-PCR.
Gene expression levels were plotted relative to a DMSO treated control at the end of Stage 1 (FIG. 4), and relative to undifferentiated hESC aggregates (FIGS. 5 and 6). See “Control” in FIGS. 4, 5 & 6. […] Chelerythrine chloride, Dephostatin, SU 6656 and Tyrphostin AG 490 compounds each caused an increase in SOX17 gene expression as compared to the DMSO control, consistent with the gene expression profile for Stage 1 definitive endoderm cell cultures (FIG. 4D). However, Tyrphostin AG 490 (AG) and SU 6656 (SU) each caused a decrease in FOXA2 (HNF3β) expression as compared to the DMSO control, indicating adverse effects of these two compounds on definitive endoderm (FIG. 4C). Yet none of the compounds appeared to substantially impact expression of non-definitive endoderm markers including SOX7, PAX6 or ZIC1 (FIGS. 4 E, 4F & 4G), and were not, therefore, excluded on the basis of inducing differentiation to other cell types. […] This compound neither decreased OCT4 or NANOG expression, nor increased FOXA2 (HNF3β) or SOX17 expression, as would have been expected of a pluripotent stem cell-selective inhibitor/cytotoxic agent.

What does the source list for “22, 23-dihydroavermectin B1a+22,23-dihydroavermectin B1b [Ivermectin]”?
minimal effective concentration [1]: >50 µM; minimal effective concentration [2]: 5 µM

What does the source list for `CN(N=O)c1cc(O)ccc1O` [Dephostatin]?
Viability of Definitive Endoderm [3]: capable of growth and proliferation; also recorded: Viable; SOX17 gene expression [4]: increase; OCT4 and NANOG gene expression [4]: subtle relative decrease

With `CN(C)S(=O)(=O)c1ccc2c(c1)/C(=C/c1cc3c([nH]1)CCCC3)C(=O)N2` [SU 6656] as the compound, how does the minimal effective concentration ([1]; Homo sapiens, 48 h) read?
The minimal effective concentration was over 50 µM.

What about the minimal effective concentration ([2]; Homo sapiens) of the same compound?
Its minimal effective concentration is 25 µM.

What about the “Viability of Definitive Endoderm” value [3] of the same compound?
The value was “capable of growth and proliferation; also recorded: Viable”.

What about the “FOXA2 (HNF3β) expression” value [4] of the same compound?
Its value is “decrease”.

And the SOX17 gene expression [4]?
Its SOX17 gene expression is “increase”.

And the “OCT4 and NANOG gene expression” value [4]?
Its value is “subtle relative decrease”.

Which results are given for `N#C/C(=C\c1ccc(O)c(O)c1)C(=O)NCc1ccccc1` [Tyrphostin AG 490]?
minimal effective concentration [1]: 10 µM; minimal effective concentration [2]: 25 µM; Viability of Definitive Endoderm [3]: capable of growth and proliferation; also recorded: Viable; FOXA2 (HNF3β) expression [4]: decrease; SOX17 gene expression [4]: increase; OCT4 and NANOG gene expression [4]: subtle relative decrease
